Results as given in patent publication US10857082B2, “Diarylalkanes as potent inhibitors of binuclear enzymes” (Unigen, Inc., priority 2004, dated 2020).
“Also recorded” adds a separate entry of the source. Where two headings read alike, the source gives them in different places.

Key:
mushroom tyrosinase = mushroom tyrosinase (Agaricus bisporus, UniProt C7FF04); experiment: Tyrosinase inhibition assay (L-DOPA to dopachrome, absorbance at 450 nm); type: biochemical
Experimental: (§1) A tyrosinase inhibition assay was carried out using the method reported by Jones et al. (2002) Pigment. Cell Res. 15:335. Using this method, the conversion of L-Dopa, a substrate of tyrosinase, into dopachrome is followed by monitoring absorption at 450 nm. Tyrosinase was prepared in 50 mM potassium phosphate buffer, pH 6.8 (assay buffer) at 2000 U/ml and stored at −20° C. in 1 ml aliquots prior to use. For use in assays, stock enzyme solutions were thawed and diluted to 200 U/ml with assay buffer. A 2 mM working solution of substrate, L-DOPA, was prepared in assay buffer for each assay. Samples were dissolved in 10% DMSO (0.5 ml) and diluted to 5 ml with assay buffer. The reaction mixture consisted of 0.050 ml 2 mM L-DOPA, 0.050 ml 200 U/ml mushroom tyrosinase and 0.050 ml inhibitor. Reaction volume was adjusted to 200 μl with assay buffer. Assays were performed in 96 well Falcon 3097 flat-bottom microtiter plates (Beckton Dickinson, N.J.). Appearance of dopachrome was measured with a WALLAC 1420 Multilable Counter (Turku, Finland). Average velocity was determined from linear enzyme rate as measured by change in absorbance (ΔA450) at 450 nm per minute. Percent inhibition of tyrosinase by test samples was determined by comparison of absorbance of samples versus control using formula (I): (Negative control absorption-sample absorption)/Negative control absorption×100 (1)
Inhibition of tyrosinase by synthetic diarylalkanes was measured using the method described in Example 2. The IC50 value of each sample was calculated using kinetics software to verify that the reaction was linear at a specified time and concentration.

DOPA oxidase activity = conditions: cited from earlier work
tyrosinase = experiment: Enzyme inhibition kinetics with L-DOPA as substrate; type: biochemical, mushroom
Experimental: as §1, with “A 2 mM working solution of substrate, L-DOPA, was prepared in assay buffer for each assay.” left out, “The reaction mixture consisted of 0.050 ml 2 mM L-DOPA, 0.050 ml 200 U/ml mushroom tyrosinase and 0.050 ml inhibitor.” left out

B16 F1 cells [1] = experiment: Cell toxicity assay, lactate dehydrogenase (LDH)
Experimental: The inhibition of melanin production was evaluated using two different assays. In the first assay, the inhibition of melanin production was evaluated without induction by β-MSH; whereas in the second assay the inhibition of melanin production was measured with β-MSH induction in cell culture medium. Briefly, B16 F1 cells (ATCC #CRL-622) were grown to confluency and then seeded at 40,000 cells per well. The cells were allowed to attach overnight at 37° C. in a humidified environment containing 5% CO2. On day 2, inhibitors were added to the cells at concentrations ranging from 0-1000 μM in triplicate and allowed to incubate for four days. The amount of β-MSH required to induce melanin formation was determined by the addition of hormone at concentrations ranging from 0-1000 nM in ten-fold increments. Once the proper β-MSH concentration was determined, cells were seeded as above, allowed to attach overnight and then co-incubated with tyrosinase inhibitors at concentrations ranging from 0-1000 μM. Color development was visually monitored each morning. After the development of color, 200 μl of cell supernatant was removed from each well and absorbance was measured at 450 nm. The resulting readings were used to determine the IC50 for melanin formation in the cell assay with and without β-MSH induction. For an initial comparison of cell toxicity, the 250 μM treated wells were used to perform a lactate dehydrogenase assay (LDH). LDH is a metabolic enzyme that leaks out of damaged or dead cells. The enzyme converts a chromophore in the presence of NAD^+ to yield a color change that can be monitored spectrophotometrically.
The compound treated wells were used to perform a lactate dehydrogenase assay (LDH). LDH is a metabolic enzyme that leaks out of damaged or dead cells. The enzyme converts a chromophore in the presence of NAD^+ to yield a color change that can be monitored spectrophotometrically. The cytotoxicity was examined at a concentration of 250 μM. […] It should be noted however, that cytotoxicity at only one concentration (250 μM) was tested.

B16 F1 cells [2] = experiment: Inhibition of melanin production in B16 F1 cells without β-MSH induction (endogenous); type: cell-based, mouse; conditions: for Inhibition of melanin production relative to kojic acid, in words: B-16 cell line model, with and without β-MSH induction
Excerpt: (§2) Color development was visually monitored each morning.

B16 F1 cells [3] = experiment: Inhibition of melanin production in B16 F1 cells with β-MSH induction; type: cell-based, mouse
Excerpt: as §2

[4] = biological target: human tyrosinase hydroxylase activity (Homo sapiens (Human), UniProt P14679); conditions: cited from earlier work
[5] = tested on: B16 F1 murine melanoma cells; conditions: read-out: IC50, melanin biosynthesis; cited from earlier work
[6] = Table 2, synthetic diarylalkanes and/or diarylalkanols, read-out: Tyrosinase Inhibition (IC50)
[7] = read-out: IC50 for inhibition of tyrosinase
[8] = Mus musculus, B16 F1 cells, without β-MSH induction, read-out: IC50 for melanin formation, endogenous experiment
[9] = Table 3, mouse B16 F1 cells, no β-MSH, read-out: Endogenous Melanin Inhibition IC50
[10] = Mus musculus, B16 F1 cells, with β-MSH induction, read-out: IC50 for melanin formation, induced experiment
[11] = Table 3, mouse B16 F1 cells, β-MSH induction, read-out: MSH Induced Melanin Inhibition IC50

Chain of mushroom tyrosinase (C7FF04 1-392 limits assumed): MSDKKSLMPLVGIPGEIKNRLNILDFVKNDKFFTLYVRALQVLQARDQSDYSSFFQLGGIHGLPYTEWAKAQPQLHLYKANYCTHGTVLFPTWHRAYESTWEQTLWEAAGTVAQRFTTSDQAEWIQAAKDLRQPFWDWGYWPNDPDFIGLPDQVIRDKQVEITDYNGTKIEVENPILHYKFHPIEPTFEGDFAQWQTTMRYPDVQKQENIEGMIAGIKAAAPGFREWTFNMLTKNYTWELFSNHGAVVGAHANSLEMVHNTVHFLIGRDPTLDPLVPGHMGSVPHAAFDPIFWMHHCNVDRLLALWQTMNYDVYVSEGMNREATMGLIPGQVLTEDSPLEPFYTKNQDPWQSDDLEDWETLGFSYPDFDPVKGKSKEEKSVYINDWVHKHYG
Chain of human tyrosinase hydroxylase activity (P14679 19-529): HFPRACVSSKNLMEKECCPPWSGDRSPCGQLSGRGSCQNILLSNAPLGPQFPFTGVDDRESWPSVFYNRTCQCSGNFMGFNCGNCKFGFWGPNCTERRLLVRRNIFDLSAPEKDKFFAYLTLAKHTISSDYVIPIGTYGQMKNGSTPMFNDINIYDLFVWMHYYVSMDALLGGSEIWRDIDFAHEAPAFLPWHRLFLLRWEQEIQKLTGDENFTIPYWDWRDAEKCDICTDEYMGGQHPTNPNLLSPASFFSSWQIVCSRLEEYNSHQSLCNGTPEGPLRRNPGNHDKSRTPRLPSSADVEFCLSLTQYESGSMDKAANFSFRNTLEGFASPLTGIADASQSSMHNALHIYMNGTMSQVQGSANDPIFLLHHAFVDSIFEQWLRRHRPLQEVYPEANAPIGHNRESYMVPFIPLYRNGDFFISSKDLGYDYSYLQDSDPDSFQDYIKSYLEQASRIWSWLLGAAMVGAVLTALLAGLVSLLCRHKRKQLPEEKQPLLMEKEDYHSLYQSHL

For `COc1ccc(C(O)CCc2ccc3c(c2)OCCCCO3)c(O)c1` (centres unmarked) [1-(2-hydroxy-4-methoxyphenyl)-3-(2′,3′,4′,5′-tetrahydro-benzo(b)dioxoin-8′-yl)-1-propanol], the IC50 (mushroom tyrosinase; [6]) was 72 µM and the IC50 (mushroom tyrosinase; [7]) was 72 µM.
In the case of `OC[C@H]1O[C@@H](Oc2ccc(O)cc2)[C@H](O)[C@@H](O)[C@@H]1O` [arbutin], the IC50 (DOPA oxidase activity) is listed as 3020 µM.
In the case of `COc1ccc(CCCc2ccc(O)cc2O)c(OC)c1C` [UP302a, 1-(3-methyl-2,4-dimethoxyphenyl)-3-(2′,4′-dihydroxyphenyl)-propane], the “Resumption of tyrosinase activity after incubation with inhibitor” value (tyrosinase) is reported as “not resumed for several days”, the “Type of tyrosinase inhibition” value (tyrosinase; inhibitor 0, 261, 522, 1044 nM, L-DOPA 0.75, 1.25, 2.5 mM) is reported as “powerful competitive inhibitor” and the “Cell Toxicity (LDH)” value (B16 F1 cells [1]; mouse, 4 days, 250 μM) is reported as 0.265. The “Tyrosinase inhibitory activity in words” value (mushroom tyrosinase) was “strong tyrosinase inhibitory activity”, the “Inhibition of melanin production relative to kojic acid, in words” value (B16 F1 cells [2]) was “at least as good, if not better inhibitors than kojic acid” and the IC50 (B16 F1 cells [2]; [8]) was 28 µM. The IC50 (B16 F1 cells [2]; [9]) was 28 µM, the “Inhibition of MSH induced melanin production relative to kojic acid” value (B16 F1 cells [3]; B-16 cell line) was “significantly greater than kojic acid” and the IC50 (B16 F1 cells [3]; [10]) was 40 µM. It also gave an IC50 (B16 F1 cells [3]; [11]) of 40 µM.
For `CC(=O)Cc1cc(=O)c2c(C)cc(O)c([C@@H]3O[C@H](CO)[C@@H](O)[C@H](O)[C@H]3O)c2o1` [aloesin], the IC50 [4] is given as 920 µM, the IC50 [5] is given as 167 µM and the IC50 (DOPA oxidase activity) is given as 700 µM.
For `COc1ccc(O)c(CCCc2ccc(O)cc2OC)c1` [UP288, 1-(2-methoxy-4-hydroxyphenyl)-3-(2′-hydroxy-5′-methoxyphenyl)-propane], the “Cell Toxicity (LDH)” value (B16 F1 cells [1]; mouse, 4 days, 250 μM) was 0.315, the “Tyrosinase inhibitory activity in words” value (mushroom tyrosinase) was “as potent a tyrosinase inhibitor as kojic acid; also recorded: strong tyrosinase inhibition activity” and the “Inhibition of melanin production relative to kojic acid, in words” value (B16 F1 cells [2]) was “comparable to kojic acid; also recorded: at least as good, if not better inhibitors than kojic acid”. For the same compound, the IC50 (B16 F1 cells [2]; [9]) was 108 µM and the IC50 (B16 F1 cells [3]; [11]) was 105 µM.
For `COc1cc(CCC(O)c2ccc(O)cc2O)ccc1O` (centres unmarked) [1-(2,4-dihydroxyphenyl)-3-(3′-methoxy-4′-hydroxyphenyl)-1-propanol], the “Tyrosinase inhibitory activity in words” value (mushroom tyrosinase) was “quite strong tyrosinase inhibitory activity”.
Compound `COc1ccc(O)c(C(O)CCc2ccc(OC)c(OC)c2)c1` (stereo not drawn) [l-(2-hydroxy-5-methoxyphenyl)-3-(3′,4′-dimethoxyphenyl)-1-propanol] has an IC50 (mushroom tyrosinase; [6]) of 30 µM.
Compound `COc1ccc(C(O)CCc2ncc(Cl)n2C)c(O)c1` (centres unmarked) [3-(5′-chloro-1′-methyl-1′-hydro-imidazol-2′-yl)-1-(2-hydroxy-4-methoxyphenyl)-1-propanol] has an IC50 (mushroom tyrosinase; [6]) of 225 µM and an IC50 (mushroom tyrosinase; [7]) of 225 µM.
For `O=c1cc(CO)occ1O` [Kojic acid, kojic acid, reference compound], the “Time until tyrosinase activity was totally restored following incubation” value (tyrosinase) was 1 h, the “Cell Toxicity (LDH)” value (B16 F1 cells [1]; 250 μM treated wells) was 0.260 and the IC50 (B16 F1 cells [2]; [8]) was 170 µM. For the same compound, the IC50 (B16 F1 cells [2]; [9]) was 170 µM, the IC50 (B16 F1 cells [3]; [10]) was 67 µM and the IC50 (B16 F1 cells [3]; [11]) was 67 µM. For the same compound, the IC50 (DOPA oxidase activity) was 410 µM.
